# Data from patent US8324172B2, “G protein coupled receptor agonists and antagonists and methods of activating and inhibiting G protein coupled receptors using the same” (Tufts Medical Center, Inc., priority 2000, dated 2012).
# Residue numbers refer to the chain shown, from its start. “Also recorded” adds a separate entry of the source. Where a SMILES comes first, the peptide text is derived from it. Where no end group is shown, it is not given here. The star is where a group is joined. Palmitoyl = CCCCCCCCCCCCCCCC(=O)*
# What was measured:
# P2Y12 ADP receptor = target: T1, P2Y12 ADP receptor (Homo sapiens, UniProt Q9H244); test: Irreversible aggregation of SFLLRN-activated human platelets (ADP autocrine response); type: cell-based; settings: 3 μM SFLLRN
# T1 construct: endogenous in cells; host or cells: gel-purified human platelets
# Text: Recently, the P2Y12 adenosine diphosphate (ADP) receptor was cloned by three independent groups (Hollopeter et al., Nature 409:202 (2001); Zhang et al., J. Biol. Chem. 276:8605 (2001); and Takasaki et al., Mol. Pharmacol. 60:432 (2001)) and shown to be the long-sought after target of the thienopyridine drugs clopidogrel and ticlopidine (Gachet et al., Biochem Pharmacol 40:2683 (1990); Mills et al., Arterioscler Thromb 12:430 (1992)). […] P2Y12 plays such a critical role in thrombus formation because it can modulate the strength of platelet-platelet adhesive interactions via multiple receptors such as PAR1. Inputs from P2Y12 stabilize the critical transition point of platelet-platelet aggregates during the progression from early reversible GPIIb-IIIa-fibrinogen binding to the late phase of irreversible binding to fibrinogen.
# Aggregometry was performed by light scattering.
# cholecystokinin B (CCKB) = target: T2, cholecystokinin B (CCKB) (Homo sapiens, UniProt P32239); test: InsP formation in COS7 cells expressing CCKB; type: cell-based
# T2 construct: expressed in transfected cells; host or cells: COS7, transient
# T2 sequence (P32239 1-447): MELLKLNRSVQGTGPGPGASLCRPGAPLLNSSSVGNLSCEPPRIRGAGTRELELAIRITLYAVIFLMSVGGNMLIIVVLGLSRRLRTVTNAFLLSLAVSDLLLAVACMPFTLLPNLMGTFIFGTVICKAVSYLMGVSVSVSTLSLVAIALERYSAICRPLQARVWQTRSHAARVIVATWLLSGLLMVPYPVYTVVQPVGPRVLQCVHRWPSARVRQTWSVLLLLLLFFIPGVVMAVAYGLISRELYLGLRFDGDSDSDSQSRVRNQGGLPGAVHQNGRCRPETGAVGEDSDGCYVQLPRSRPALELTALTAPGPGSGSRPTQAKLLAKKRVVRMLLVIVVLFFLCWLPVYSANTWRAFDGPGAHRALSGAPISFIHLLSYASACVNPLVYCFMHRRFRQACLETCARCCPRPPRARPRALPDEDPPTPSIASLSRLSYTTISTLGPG
# [1] = test system: untransfected Rat1 cells / COS7 cells without PAR1; test: InsP formation in COS7 cells or Rat1 fibroblasts in the absence of the PAR1 receptor; type: cell-based; settings: for InsP stimulation in the absence of the PAR1 receptor: COS7 cells or Rat1 fibroblasts
# substance P (Sub-P) = target: T3, substance P (Sub-P) (Homo sapiens, UniProt P25103); test: InsP formation in COS7 cells expressing substance P receptor; type: cell-based
# T3 construct: expressed in transfected cells; host or cells: COS7, transient
# [2] = target: T4, somatostatin receptor (SSTR2) (Rattus norvegicus, UniProt P30680); test: InsP formation in COS7 cells expressing SSTR2; type: cell-based; settings: COS7 cells
# T4 construct: expressed in transfected cells; host or cells: COS7, transient
# PAR4 = target: T5, PAR4 (Homo sapiens, UniProt Q96RI0); test: InsP formation in COS7 cells expressing PAR4; type: cell-based; design: expressed in transfected cells; host or cells: COS7, transient; settings: COS7 cells
# T5 sequence (Q96RI0 18-385): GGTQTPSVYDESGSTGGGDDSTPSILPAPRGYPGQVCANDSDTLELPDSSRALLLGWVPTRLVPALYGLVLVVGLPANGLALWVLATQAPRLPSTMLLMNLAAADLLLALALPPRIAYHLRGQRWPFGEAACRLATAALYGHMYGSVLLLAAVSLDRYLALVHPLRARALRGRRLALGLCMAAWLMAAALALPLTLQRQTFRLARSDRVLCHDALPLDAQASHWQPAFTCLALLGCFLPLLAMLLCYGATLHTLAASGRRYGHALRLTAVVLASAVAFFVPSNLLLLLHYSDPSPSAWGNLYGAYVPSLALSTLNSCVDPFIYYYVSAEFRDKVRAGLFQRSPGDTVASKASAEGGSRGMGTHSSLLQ
# PAR2 = target: T6, PAR2 (Homo sapiens, UniProt P55085); test: InsP formation in COS7 cells expressing PAR2; type: cell-based; settings: 0.1-10 micromolar pepducin
# T6 construct: expressed in transfected cells; host or cells: COS7 (transient)
# T6 sequence (P55085 26-397): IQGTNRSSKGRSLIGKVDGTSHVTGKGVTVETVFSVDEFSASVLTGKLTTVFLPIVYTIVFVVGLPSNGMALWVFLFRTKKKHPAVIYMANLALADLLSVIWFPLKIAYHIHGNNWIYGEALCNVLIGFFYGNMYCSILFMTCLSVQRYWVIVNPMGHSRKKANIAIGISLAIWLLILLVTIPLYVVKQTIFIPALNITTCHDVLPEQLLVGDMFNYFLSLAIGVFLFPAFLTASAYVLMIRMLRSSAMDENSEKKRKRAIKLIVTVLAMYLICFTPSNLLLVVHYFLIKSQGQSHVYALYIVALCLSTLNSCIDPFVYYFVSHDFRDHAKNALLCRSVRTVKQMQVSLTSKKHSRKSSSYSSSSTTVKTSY
# PAR1 [3] = target: T7, PAR1 (Homo sapiens, UniProt P25116); test: InsP formation (PLC-β) in Rat1 fibroblasts expressing human PAR1; type: cell-based
# T7 construct: expressed in transfected cells
# T7 sequence (P25116 22-425): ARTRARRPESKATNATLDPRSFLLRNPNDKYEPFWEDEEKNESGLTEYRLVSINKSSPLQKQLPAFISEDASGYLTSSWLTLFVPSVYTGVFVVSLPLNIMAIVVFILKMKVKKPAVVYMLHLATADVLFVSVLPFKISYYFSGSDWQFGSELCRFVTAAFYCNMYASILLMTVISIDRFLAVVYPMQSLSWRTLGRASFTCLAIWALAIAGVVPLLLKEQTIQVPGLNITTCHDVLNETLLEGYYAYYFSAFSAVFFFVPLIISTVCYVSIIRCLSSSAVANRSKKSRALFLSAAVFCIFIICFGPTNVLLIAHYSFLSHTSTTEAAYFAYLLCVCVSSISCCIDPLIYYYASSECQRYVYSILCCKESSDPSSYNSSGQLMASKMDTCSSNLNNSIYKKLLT
# cholecystokinin A (CCKA) = target: T8, cholecystokinin A (CCKA) (Homo sapiens, UniProt P32238); test: InsP formation in COS7 cells expressing CCKA; type: cell-based
# T8 construct: expressed in transfected cells; host or cells: COS7, transient
# T8 sequence (P32238 1-428): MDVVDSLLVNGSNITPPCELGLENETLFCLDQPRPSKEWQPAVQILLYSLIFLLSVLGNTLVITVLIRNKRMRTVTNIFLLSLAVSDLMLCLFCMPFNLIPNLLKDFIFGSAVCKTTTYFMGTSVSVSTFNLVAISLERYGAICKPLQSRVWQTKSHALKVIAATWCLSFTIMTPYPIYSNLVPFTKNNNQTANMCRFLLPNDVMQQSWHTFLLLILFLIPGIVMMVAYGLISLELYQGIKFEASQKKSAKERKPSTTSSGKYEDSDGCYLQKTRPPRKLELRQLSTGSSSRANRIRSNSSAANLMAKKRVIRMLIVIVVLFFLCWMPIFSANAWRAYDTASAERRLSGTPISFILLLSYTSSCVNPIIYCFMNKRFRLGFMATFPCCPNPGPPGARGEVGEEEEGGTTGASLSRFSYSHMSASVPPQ
# delta377 PAR1 = test: InsP formation in COS7 cells expressing delta377 (C-tail deleted) PAR1 mutant; type: cell-based, human
# platelets = test: Platelet intracellular Ca2+, agonist activity of peptides
# S309P PAR1 = target: T9, S309P PAR1 (Homo sapiens, UniProt P25116, S309P); test: InsP formation in COS7 cells expressing S309P PAR1 mutant; type: cell-based; settings: relative to wild type PAR1
# T9 construct: expressed in transfected cells; host or cells: COS7, transient
# T9 sequence (P25116 22-425 S309P): T7 sequence (P25116 22-425) with S288P
# PAR1 [4] = target: T7, PAR1; test: Inhibition of PAR1-dependent platelet Ca2+ signal; type: cell-based; settings: SFLLRN (or thrombin) after peptide pre-treatment
# Description: Platelet Ca2+ measurements were performed as in Example 1.
# The integrated Ca^2+ response for the individual treatments are relative to the full Ca^2+ responses for each agonist (100%) recorded in the absence of P4pal-10 (top trace).
# MC4R = target: T10, MC4R (Homo sapiens, UniProt P32245); test: Adenylate cyclase activity in COS7 fibroblasts transfected with MC4R; type: cell-based
# T10 construct: expressed in transfected cells; host or cells: COS7, transient
# T10 sequence (P32245 whole entry): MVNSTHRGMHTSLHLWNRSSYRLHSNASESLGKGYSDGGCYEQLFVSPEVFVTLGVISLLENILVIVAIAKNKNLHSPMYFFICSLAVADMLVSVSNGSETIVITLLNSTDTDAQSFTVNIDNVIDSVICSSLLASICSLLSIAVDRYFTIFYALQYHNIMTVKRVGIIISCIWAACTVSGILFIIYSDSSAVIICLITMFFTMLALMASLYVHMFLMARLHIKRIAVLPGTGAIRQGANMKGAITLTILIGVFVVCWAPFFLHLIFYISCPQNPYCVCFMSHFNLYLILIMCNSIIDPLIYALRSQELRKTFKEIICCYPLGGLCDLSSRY
# T1 sequence (Q9H244 whole entry): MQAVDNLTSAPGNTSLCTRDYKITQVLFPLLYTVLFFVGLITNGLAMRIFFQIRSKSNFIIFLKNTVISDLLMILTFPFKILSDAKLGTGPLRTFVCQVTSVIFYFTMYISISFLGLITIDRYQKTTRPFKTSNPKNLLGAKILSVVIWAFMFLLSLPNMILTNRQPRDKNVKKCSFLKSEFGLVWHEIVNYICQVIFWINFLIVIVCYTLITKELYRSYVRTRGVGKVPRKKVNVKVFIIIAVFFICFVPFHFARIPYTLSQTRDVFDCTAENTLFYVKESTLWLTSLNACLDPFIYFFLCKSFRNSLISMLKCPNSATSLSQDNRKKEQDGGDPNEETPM
# T4 sequence (P30680 whole entry): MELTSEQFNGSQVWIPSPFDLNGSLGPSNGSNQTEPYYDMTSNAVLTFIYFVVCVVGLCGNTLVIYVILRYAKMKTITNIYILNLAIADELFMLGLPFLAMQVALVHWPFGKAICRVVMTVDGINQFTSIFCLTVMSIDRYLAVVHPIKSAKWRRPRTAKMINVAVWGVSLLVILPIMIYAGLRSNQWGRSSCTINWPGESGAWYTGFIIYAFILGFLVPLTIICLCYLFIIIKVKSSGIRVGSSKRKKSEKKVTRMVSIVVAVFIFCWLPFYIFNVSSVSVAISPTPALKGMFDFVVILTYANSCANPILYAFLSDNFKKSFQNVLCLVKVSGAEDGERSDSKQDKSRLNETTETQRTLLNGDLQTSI
# T3 sequence (P25103 whole entry): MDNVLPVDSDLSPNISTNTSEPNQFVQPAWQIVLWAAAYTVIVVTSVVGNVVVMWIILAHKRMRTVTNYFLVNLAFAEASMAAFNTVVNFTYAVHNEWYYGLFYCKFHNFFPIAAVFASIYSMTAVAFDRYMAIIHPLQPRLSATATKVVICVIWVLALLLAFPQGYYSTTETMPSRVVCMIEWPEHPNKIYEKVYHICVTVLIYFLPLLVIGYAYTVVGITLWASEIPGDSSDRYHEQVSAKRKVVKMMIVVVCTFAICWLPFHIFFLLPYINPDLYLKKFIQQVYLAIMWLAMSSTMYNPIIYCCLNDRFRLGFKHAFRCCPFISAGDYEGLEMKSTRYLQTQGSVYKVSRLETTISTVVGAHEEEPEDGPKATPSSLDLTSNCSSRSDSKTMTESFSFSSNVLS
Compound,agonist activity in platelet aggregation (human platelets),InsP stimulation in the absence of the PAR1 receptor [1],activation of Sub-P receptor (InsP) (substance P (Sub-P)),activation of SSTR2 (InsP) [2],activation of PAR4 (InsP) (PAR4),activation of PAR2 (InsP) (PAR2),Agonist Efficacy (PAR1 [3]),activation of CCKA (InsP) (cholecystokinin A (CCKA)),other results
"Y12pal-24: pepducin based on the i3-loop of P2Y12; peptide KELYRS YVRTRGVGKVPRKKVNVF (SEQ ID NO:34) (KELYRSYVRTRGVGKVPRKKVNVF; also: palmitoyl lipid, position not given here) [Pepducin Y12pal-24]",no agonist activity,,,,,,,,"inhibition of irreversible platelet aggregation (P2Y12 ADP receptor; 0, 1, 3, or 10 μM pepducin): effective inhibitor of irreversible platelet aggregation; efficacy of inhibition compared with apyrase (P2Y12 ADP receptor; 10 μM pepducin): equivalent in efficacy as addition of saturating amounts of apyrase"
CCCCCCCCCCCCCCCC(=O)N[C@@H](C)C(=O)N[C@H](C(=O)N[C@@H](C)C(=O)N[C@@H](CC(N)=O)C(=O)N[C@@H](CCCNC(=N)N)C(=O)N[C@@H](CO)C(=O)N[C@@H](CCCCN)C(=O)N[C@@H](CCCCN)C(=O)N[C@@H](CO)C(=O)N[C@@H](CCCNC(=N)N)C(=O)N[C@@H](C)C(=O)N[C@@H](CC(C)C)C(=O)N[C@@H](Cc1ccccc1)C(N)=O)C(C)C [Pepducin P1pal-13] (Palmitoyl-AVANRSKKSRALF-NH2),,approximately 11%,did not activate,did not activate,did not activate,did not activate,60 − 88%,did not activate,activation of CCKB (InsP) (cholecystokinin B (CCKB); COS7 cells): did not activate
CCCCCCCCCCCCCCCC(=O)N[C@@H](CCCNC(=N)N)C(=O)N[C@@H](CS)C(=O)N[C@@H](CC(C)C)C(=O)N[C@@H](CO)C(=O)N[C@@H](CO)C(=O)N[C@@H](CO)C(=O)N[C@@H](C)C(=O)N[C@H](C(=O)N[C@@H](C)C(=O)N[C@@H](CC(N)=O)C(=O)N[C@@H](CCCNC(=N)N)C(=O)N[C@@H](CO)C(=O)N[C@@H](CCCCN)C(=O)N[C@@H](CCCCN)C(=O)N[C@@H](CO)C(=O)N[C@@H](CCCNC(=N)N)C(=O)N[C@@H](C)C(=O)N[C@@H](CC(C)C)C(=O)N[C@@H](Cc1ccccc1)C(N)=O)C(C)C [Pepducin P1pal-19] (Palmitoyl-RCLSSSAVANRSKKSRALF-NH2),fully activates platelet aggregation,approximately 11%,does not activate,does not activate,does not activate,robustly activate PAR2; also recorded: can fully activate,90 ± 2%,does not activate,"stimulation of CCKB, % of its maximal activity (cholecystokinin B (CCKB); maximum defined by 300 nM CCK-8): about 30%; stimulation of untransfected Rat1 cells (Rat1 alone) ([1]; attributed to endogenous rat PAR1): minor stimulation; stimulation of PLC-beta with delta377 PAR1 mutant (delta377 PAR1): effectively no stimulation of PLC-beta; agonist activity, platelet intracellular Ca2+ (platelets): causes a rapid Ca^2+i transient; loss of efficacy on S309P mutant (S309P PAR1): 4.3 fold; loss of potency on S309P mutant (S309P PAR1): 13 fold; inhibition of PAR1-dependent Ca2+ response (PAR1 [4]): completely inhibits the subsequent Ca^2+i response; EC50 (human platelets; read-out: EC50 of activation of platelet aggregation): 8 ± 3 µM"
CCCCCCCCCCCCCCCC(=O)N[C@H](C(=O)NCC(=O)N[C@@H](C)C(=O)N[C@H](C(=O)N[C@@H](CCCNC(=N)N)C(=O)N[C@@H](CCC(N)=O)C(=O)NCC(=O)N[C@@H](C)C(=O)N[C@@H](CC(N)=O)C(=O)N[C@@H](CCSC)C(=O)N[C@@H](CCCCN)C(=O)NCC(=O)N[C@@H](C)C(=O)N[C@H](C(N)=O)[C@@H](C)CC)[C@@H](C)CC)[C@@H](C)O [MC4pal-14] (Palmitoyl-TGAIRQGANMKGAI-NH2),,,,,,,,,"IC50 (MC4R; read-out: IC50, inhibitory phase): ~10 µM; stimulation of adenylate cyclase activity (efficacy) (MC4R; relative to alpha-MSH): 40%"
